Laboratory results taken from PMC7525093, “Bis-Quinolinium Cyclophane Blockers of SK Potassium Channels Are Antagonists of M3 Muscarinic Acetylcholine Receptors” (Frontiers in Pharmacology, 2020).
pKi: −log10 of the molar value.

Key:
[1] = biological target: SK3; parameters: method as in Benton D.C. et al., 2013; conditions: 125I-Apamin competition; ref Benton D.C. et al., 2013; read-out: Ki, SK3 channels; cited from earlier work
[2] = tested on: bladder; assay: Isometric bladder ring tension measurement; parameters: species or system mouse; conditions: 3.5 μM; 0.5 μM carbachol
Experimental: Mice used in these studies were BALB/C mice from Jackson Labs. All animal procedures were reviewed and approved by the University of Texas Health Science Center at San Antonio Institutional Animal Care and Use Committee. For tracheal constriction studies, animals were deeply anesthetized with isoflurane and then sacrificed by cervical dislocation. Isometric tracheal contraction measurements were performed as previously described ([Semenov et al., 2012]). Trachea were removed and surrounding tissues dissected in ice-cold physiologic saline solution (PSS) consisting of 119 mM NaCl, 4.7 mM KCl, 2.0 mM CaCl2, 1.0 mM KH2PO4, 1.17 mM MgSO4, 18 mM NaHCO3, 0.026 mM EDTA, 11 mM glucose, and 12.5 mM sucrose. Trachea were cut below the pharynx and above the primary bronchus bifurcation. Two metal wires, attached to a force transducer and micrometer (Radnoti, LLC), were threaded into the lumen of the trachea. Trachea were placed into an oxygenated organ bath (95% O2, 5% CO2), at 37°C, pH 7.35 (after bubbling with 95% O2–5% CO2). Tracheal resting tension was readjusted to 1 gram over 1 h and then challenged with 67 mM potassium PSS with NaCl adjusted to 56.7 mM to maintain proper osmolarity (KPS). Trachea were challenged two or more times until reproducible contractile responses were achieved. All subsequent experimental drug responses were normalized to the KPS response. […]

[3] = biological target: T1, histamine receptor H1 (Homo sapiens, UniProt P35367); assay: R-CEPIAer ER calcium assay, CHO cells transfected with H1 receptor; type: cell-based; conditions: data not shown
T1 construct: expressed in transfected cells; host or cells: CHO cells, transiently co-transfected with pCMV R-CEPIAer
Experimental: The binding of antagonists to Gq-coupled receptors was determined by measuring IP3-mediated calcium depletion from the endoplasmic reticulum (ER). This was accomplished using CHO-K1 cells stably transfected with human M3 muscarinic acetylcholine receptor (CEM3000000, cDNA Resource Center, Bloomsburg University) and R-CEPIAer, a low affinity ER-targeted calcium indicator fluorescent protein ([Suzuki et al., 2014]). R-CEPIAer reporting of ER calcium concentration was assessed using 564 nm excitation light (>590 long-pass emission) at 20 second intervals on a Nikon swept-field confocal microscope using slit-scan mode, 2x2 Binning, and 100 millisecond frames. F/Fmax was fluorescence intensity normalized to maximal fluorescence intensity during the experiment. The response of cells to Gq-coupled receptor agonist were measured as the change in F/Fmax (ΔF/Fmax) from preagonist value to fluorescence minimum during agonist application (that occurs by IP3-mediated ER calcium depletion). […] Perfusion of each agonist application was for 2 min, while the antagonist overlapped and preceded the second agonist application by 3 min. […] IC50 was calculated by assaying fractional inhibition using a dose-response of antagonist concentrations (i.e. Figure 1D ). […]

[4] = tested on: rat primary tracheal smooth muscle cells; assay: Cytosolic calcium imaging in rat tracheal smooth muscle cells; type: cell-based
Experimental: Rat trachea were isolated as described above, except that a guillotine was used for sacrifice instead of cervical dislocation. The dorsal muscle layer was removed from the hyaline cartilage rings and minced into ~1-mm fragments in Ca^2+-free HEPES-buffered Krebs solution (140 mM NaCl, 4.7 mM KCl, 1.13 mM MgCl2, 10 mM HEPES, 10 mM glucose, pH 7.3). The tracheal smooth muscle (TSM) fragments were digested with 2.5 U/ml papain (MP Biomedicals) with 1 mg/ml BSA fraction V and 1 mg/ml dithiothreitol at 37°C on a rocking platform (250 rotations/min) for 20 min. After washing once with the Ca^2+-free Krebs solution the TSM fragments were digested with 12.5 U/ml of type VII collagenase (Sigma Chemical) for 10 min on a rocking platform at 37°C, washed and centrifuged (750 G for two min.) three times in Ca^2+-free Krebs-BSA solution and gently triturated up to 5 min to disburse single tracheal myocytes. TSM cells were stored on ice in Ca^2+-free Krebs-BSA solution and used the same day.
TSM cells were placed on a coverslip in a 1 ml perfusion chamber on an inverted microscope and incubated with 20 μM Cal-520 AM dye (AAT Bioquest, Sunnyvale, California, USA) in 0.2% Pluronic F-127 and 1 mM probenecid in HBSS at room temperature for 30 min. The chamber was fitted with a top adaptor and coverslip (Warner Instruments, RC37WC) to establish a closed perfusion chamber. […]

T1 sequence (P35367 whole entry): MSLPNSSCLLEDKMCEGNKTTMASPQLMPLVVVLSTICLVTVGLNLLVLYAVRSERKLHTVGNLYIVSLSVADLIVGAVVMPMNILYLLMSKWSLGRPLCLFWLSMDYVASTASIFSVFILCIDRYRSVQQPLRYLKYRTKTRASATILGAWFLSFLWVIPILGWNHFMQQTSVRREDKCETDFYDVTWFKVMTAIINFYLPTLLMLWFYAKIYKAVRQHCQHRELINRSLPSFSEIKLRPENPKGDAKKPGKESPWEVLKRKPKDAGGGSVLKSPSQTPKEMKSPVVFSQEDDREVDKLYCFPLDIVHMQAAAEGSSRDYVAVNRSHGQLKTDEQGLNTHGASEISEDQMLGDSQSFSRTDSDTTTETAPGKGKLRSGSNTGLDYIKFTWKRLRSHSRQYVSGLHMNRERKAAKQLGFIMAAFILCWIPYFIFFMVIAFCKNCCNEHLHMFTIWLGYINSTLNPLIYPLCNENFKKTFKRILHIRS

## c1cc2cc(c1)C[n+]1ccc(c3ccccc31)NCc1ccc(cc1)CNc1cc[n+](c3ccccc13)C2 [UCL 1684, 6,12,19,20,25,26-Hexahydro-5,27:13,18:21,24-trietheno-11,7-metheno-7H-dibenzo [b,n] [1,5,12,16]tetraazacyclotricosine-5,13-diium dibromide]
[1]
  pKi: 8.11
[2]
  Relaxation response of bladder: 31.4 ± 8.4
[3]
  Fractional inhibition of H1 receptor response: -0.008 ± 0.04
[4]; 3.5 μM UCL 1684, 0.5 μM carbachol, rat TSMC
  Calcium response (integral) to second carbachol relative to first: 0.42 ± 0.04
[4]; Rattus norvegicus, read-out: CCH-evoked cytosolic calcium, % of control
  activity at 3.5 µM: 42%
